In assay [1] the test system is Aβ42 production in N2A-APPswe cells. Nature of the assay: Aβ42 in conditioned medium of N2A-APPswe cells by ELISA, 18 h treatment. To be noted: for IC50: mean ± standard deviation, n ≥ 3. It is filed as cell-based. An excerpt: Sigma-Aldrich Chemical Co. unless otherwise specified. SSG (1) was purchased from Wako Pure Chemical Industries, Ltd. Diosgenin (6), Dioscin (9), Polyphyllin D (10), Timosaponin BI (22) and Timosaponin BII (23) were purchased from Chengdu Must Bio-Technology Co.
Ltd. Yamogenin (7) was bought from Ambinter c/o Greenpharma while Smilagenin (24) was bought from Steraloids Inc. Substances dissolved in DMSO as stock solutions. Cell culture medium constituents were purchased from Life Technologies, Inc.
Cell culture: Neuro-2A cells expressing Swedish mutants of APP (N2A-APPswe provided by Prof. Yifan Han, The Hong Kong Polytechnic University)1 was cultured in minimal essential medium with 2 mM glutamine, 2 mM pyruvate and 10% fetal bovine serum. […]
(§1) Aβ ELISA: Aβ concentrations in conditioned medium were assayed using ELISA kits for […]
A general note: An ELISA detects its analyte on a solid surface through an enzyme-linked reagent.

Another assay relates to Neuro-2A cells. In words: Neurite outgrowth, type III β-tubulin immunostaining. It is filed as cell-based. To be noted: at concentrations that lower Aβ production, 18 h. As for the experimental part: Immunofluorescence examination of neurite outgrowth: Neuro-2A cells were seeded at 1×105 per glass bottom dishes. After treatment, cells were fixed with 4% paraformaldyde for 10 min, permeabilized with 0.1% Triton X-100, and then blocked with 1% BSA in PBS.
The cells were incubated with monoclonal antibody raised against type III β-tubulin (Sigma) for 1 h followed by Alexa488 conjugated secondary antibody. Neurite morphology was examined under fluorescence microscope. […]

Assay [2] relates to Aβ40 and Aβ38 in N2A-APPswe cells. In words: Aβ40 and Aβ38 in conditioned medium of N2A-APPswe cells by ELISA. It counts as cell-based. The settings on record: compared with Aβ42. As for the experimental part: as §1
Assay [3] has as its system brain Aβ / amyloid in APPswe transgene. To be noted: oral 25 mg/kg for 18 h, ref FASEB J. (2006) 20: E599; cited from earlier work.
Setting [4] is: N2a-APPswe, read-out: IC50 in lowering Aβ42 production, N2A-APPswe cells.
Where [5] appears, read: N2A-APPswe cells, read-out: IC50 in lowering Aβ42 production.

The term IC50 denotes the point on the concentration scale where inhibition reaches its midpoint.

Like-named read-outs stand apart in the source and are kept apart here. Where only a bound is given, the exact number is not on record here.

Regarding `COC1OC(Cn2cc(COC3CCC4(C)C(CCC5C4CCC4(C)C5CC5OC6(CCC(C)CO6)C(C)C54)C3)nn2)C(O)C(O)C1O` (stereo not drawn) [α-OMe triazole SSG (28), α-OMe triazole SSG], the half-inhibitory concentration (IC50) in assay [1] (setting [4]) was found to be 6.5 ± 2.1 µM.
As for `COC1OC(CNC(=O)COC2CCC3(C)C(CCC4C3CCC3(C)C4CC4OC5(CCC(C)CO5)C(C)C43)C2)C(O)C(O)C1O` (stereo not drawn) [α-OMe SSG (32), α-OMe SSG], the half-maximal inhibitory concentration (IC50) in assay [1] (setting [4]) was 7.2 ± 2.2 µM.
Turning to `C[C@@H]1CC[C@@]2(OC1)O[C@H]1C[C@H]3[C@@H]4CC[C@H]5C[C@@H](O)CC[C@]5(C)[C@H]4CC[C@]3(C)[C@H]1[C@@H]2C` [Tigogenin (13), tigogenin], the neurite outgrowth result with Neuro-2A cells is “not shared”. In assay [1] (N2A-APPswe cells), the “Aβ42-lowering effect (in words)” value is on record as “ineffective”. Moreover, the IC50 in assay [1] (setting [4]) was greater than 100 µM.
In the case of `C[C@H]1CC[C@@]2(OC1)O[C@H]1C[C@H]3[C@@H]4C[C@@H](O)[C@@H]5C[C@@H](O)CC[C@]5(C)[C@H]4CC[C@]3(C)[C@H]1[C@@H]2C` [5β-H, 6β-OH yamogenin (18), 5β-H, 6β-OH yamogenin], in assay [1] (setting [4]), the IC50 came out at 45 ± 4 µM.
Consider `C[C@@H]1CC[C@@]2(OC1)O[C@H]1C[C@H]3[C@@H]4C[C@@H](O)[C@@H]5C[C@@H](O)CC[C@]5(C)[C@H]4CC[C@]3(C)[C@H]1[C@@H]2C` [5β-H, 6β-OH diosgenin (16), 5β-H, 6β-OH diosgenin], for which, in assay [1] (N2A-APPswe cells), the “Aβ42-lowering effect (in words)” value was “ineffective”. Also, in assay [1] (setting [4]), the IC50 was greater than 100 µM.
Consider `C[C@@H]1CC[C@@]2(OC1)O[C@H]1C[C@H]3[C@@H]4C[C@H](O)[C@H]5C[C@@H](O)CC[C@]5(C)[C@H]4CC[C@]3(C)[C@H]1[C@@H]2C` [5α-H, 6α-OH diosgenin (15), 5α-H, 6α-OH diosgenin], for which the concentration for half-maximal inhibition (IC50) in assay [1] (setting [4]) is greater than 100 µM.
Turning to `C[C@H]1CC[C@@]2(OC1)O[C@H]1C[C@H]3[C@@H]4CC[C@@H]5C[C@@H](O[C@@H]6O[C@H](CO)[C@@H](O)[C@H](O)[C@H]6O)CC[C@]5(C)[C@H]4CC[C@]3(C)[C@H]1[C@@H]2C` [AA (5), Asparagoside A], the “effect on Aβ40 and Aβ38” value in assay [2] was “much smaller effect”. Moreover, the “Aβ42-lowering effect (in words)” value in assay [1] (N2A-APPswe cells) is reported as “effectively lowered”. For the same compound, in assay [1] (setting [4]), the IC50 was roughly 6 µM.
As to `C[C@@H]1CC[C@@]2(OC1)O[C@H]1C[C@H]3[C@@H]4CC[C@H]5C[C@@H](O[C@@H]6O[C@H](CO)[C@@H](O[C@@H]7O[C@@H](C)[C@H](O)[C@@H](O)[C@H]7O)[C@H](O)[C@H]6O[C@@H]6O[C@@H](C)[C@H](O)[C@@H](O)[C@H]6O)CC[C@]5(C)[C@H]4CC[C@]3(C)[C@H]1[C@@H]2C` [Compound 11, dihydrodioscin], the “Aβ42-lowering effect (in words)” value in assay [1] (N2A-APPswe cells) is listed as “insignificant Aβ42-lowering effects”.
For `C[C@H]1CC[C@@]2(OC1)O[C@H]1C[C@H]3[C@@H]4C[C@H](O)[C@H]5C[C@@H](O)CC[C@]5(C)[C@H]4CC[C@]3(C)[C@H]1[C@@H]2C` [5α-H, 6α-OH yamogenin (17), 5α-H, 6α-OH yamogenin], the 50% inhibitory concentration (IC50) in assay [1] (setting [4]) is greater than 100 µM.
Turning to `COC1OC(CNC(=O)COC2CCC3(C)C(CCC4C3CCC3(C)C4CC4OC5(CCC(C)CO5)C(C)C43)C2)C(O)C(O)C1O` (stereo not drawn) [β-OMe SSG (33), β-OMe SSG], the IC50 in assay [1] (read-out: IC50 in lowering Aβ42 production, N2A-APPswe cells) is 9.3 ± 3.5 µM.
For the compound `C[C@@H]1CC[C@@]2(OC1)O[C@H]1C[C@H]3[C@@H]4CC=C5C[C@@H](O[C@@H]6O[C@H](CO)[C@@H](O[C@@H]7O[C@@H](C)[C@H](O)[C@@H](O)[C@H]7O)[C@H](O)[C@H]6O[C@@H]6O[C@@H](C)[C@H](O)[C@@H](O)[C@H]6O)CC[C@]5(C)[C@H]4CC[C@]3(C)[C@H]1[C@@H]2C` [Compound 9, dioscin], the “Aβ42-lowering effect (in words)” value in assay [1] (N2A-APPswe cells) is “insignificant Aβ42-lowering effects”.
`C[C@H]1CC[C@@]2(OC1)O[C@H]1C[C@H]3[C@@H]4CC[C@@H]5C[C@H](O)CC[C@]5(C)[C@H]4CC[C@]3(C)[C@H]1[C@@H]2C` [Episarsasapogenin (20), episarsasapogenin]: the neurite outgrowth result with Neuro-2A cells is recorded as “not shared”. Moreover, the “Aβ42-lowering effect (in words)” value in assay [1] (N2A-APPswe cells) is “inactive”. Besides, the half-inhibitory concentration (IC50) in assay [1] (setting [4]) was greater than 100 µM.
Turning to `CC1CCC2(OC1)OC1CC3C4CCC5CC(OCC(=O)O)CCC5(C)C4CCC3(C)C1C2C` (stereo not shown) [Ethereal SSG (29), ethereal SSG], in assay [1] (setting [4]), the half-maximal inhibitory concentration (IC50) is 27 ± 8 µM.
`C[C@H]1CC[C@@]2(OC1)O[C@H]1C[C@H]3[C@@H]4CC=C5C[C@@H](O)CC[C@]5(C)[C@H]4CC[C@]3(C)[C@H]1[C@@H]2C` [Yamogenin (7), yamogenin]: the neurite outgrowth result in the assay with Neuro-2A cells is on record as “not shared”. Moreover, the “Aβ42-lowering effect (in words)” value in assay [1] (N2A-APPswe cells) is listed as “no effect”. Further, the IC50 in assay [1] (setting [5]) was greater than 100 µM.
Turning to `CC(C)[C@@H](C)/C=C/[C@@H](C)[C@H]1CC[C@H]2C3=CC=C4C[C@@H](O)CC[C@]4(C)[C@H]3CC[C@]12C` [Ergosterol, reference compound], the IC50 in assay [1] (setting [5]) is greater than 100 µM.
Consider `C[C@H](CO)CC[C@H]1O[C@H]2C[C@H]3[C@@H]4CC[C@@H]5C[C@@H](O)CC[C@]5(C)[C@H]4CC[C@]3(C)[C@H]2[C@@H]1C` [Dihydrosarsasapogenin (21), dihydrosarsasapogenin], for which, in assay [1] (setting [4]), the IC50 was greater than 100 µM.
Take `C[C@H]1CC[C@@]2(OC1)O[C@H]1C[C@H]3[C@@H]4CC[C@H]5C[C@@H](O)CC[C@]5(C)[C@H]4CC[C@]3(C)[C@H]1[C@@H]2C` [Neotigogenin (14), neotigogenin]: the neurite outgrowth entry in the assay on Neuro-2A cells was “not shared”. Also, the “Aβ42-lowering effect (in words)” value in assay [1] (N2A-APPswe cells) is “ineffective”. In assay [1] (setting [4]), the concentration for half-maximal inhibition (IC50) is greater than 100 µM.
For `C[C@H]1CC[C@@]2(OC1)O[C@H]1C[C@H]3[C@@H]4CC[C@@H]5CC(=O)CC[C@]5(C)[C@H]4CC[C@]3(C)[C@H]1[C@@H]2C` [Sarsasapogenone (19), sarsasapogenone], in assay [1] (N2A-APPswe cells), the “Aβ42-lowering effect (in words)” value is listed as “comparable effect to 1”. The half-maximal inhibitory concentration (IC50) in assay [1] (setting [4]) was 50 ± 5 µM.
In the case of `C[C@H]1CC[C@@]2(OC1)O[C@H]1C[C@H]3[C@@H]4CC[C@@H]5C[C@@H](O[C@@H]6O[C@H](CO)[C@H](O[C@@H]7O[C@H](CO)[C@@H](O)[C@H](O)[C@H]7O)[C@H](O)[C@H]6O[C@@H]6O[C@H](CO)[C@@H](O)[C@H](O)[C@H]6O)CC[C@]5(C)[C@H]4CC[C@]3(C)[C@H]1[C@@H]2C` [TAV (4), timosaponin A V], the “effect on Aβ40 and Aβ38” value in assay [2] was “much smaller effect”. The “Aβ42-lowering effect (in words)” value in assay [1] (N2A-APPswe cells) is reported as “effectively lowered”. For the same compound, the 50% inhibitory concentration (IC50) in assay [1] (setting [4]) was roughly 4.2 µM.
For `C[C@@H]1CC[C@@]2(OC1)O[C@H]1C[C@H]3[C@@H]4CC=C5C[C@@H](O[C@@H]6O[C@H](CO)[C@H](O)[C@H](O)[C@H]6O)CC[C@]5(C)[C@H]4CC[C@]3(C)[C@H]1[C@@H]2C` [Capsicoside A3 (8), capsicoside A3], the IC50 in assay [1] (setting [5]) was greater than 100 µM.
Consider `C[C@@H]1CC[C@@]2(OC1)O[C@H]1C[C@H]3[C@@H]4CC[C@@H]5C[C@@H](O)CC[C@]5(C)[C@H]4CC[C@]3(C)[C@H]1[C@@H]2C` [Smilagenin (24), smilagenin], for which the neurite outgrowth entry in the assay with Neuro-2A cells is reported as “not shared”. In assay [1] (N2A-APPswe cells), the “Aβ42-lowering effect (in words)” value was “ineffective”. In assay [1] (setting [4]), the IC50 was greater than 100 µM.
As for `CC(C)=CCC[C@](C)(O)[C@H]1CC[C@]2(C)[C@@H]1[C@H](O)C[C@@H]1[C@@]3(C)CC[C@H](O[C@@H]4O[C@H](CO)[C@@H](O)[C@H](O)[C@H]4O[C@@H]4O[C@H](CO)[C@@H](O)[C@H](O)[C@H]4O)C(C)(C)[C@@H]3CC[C@]12C` [Rg3], the “Brain Aβ1-42 reduced by” value in assay [3] was 30%.
For `CO[C@]1(CC[C@H](C)CO[C@@H]2O[C@H](CO)[C@@H](O)[C@H](O)[C@H]2O)O[C@H]2C[C@H]3[C@@H]4CC[C@@H]5C[C@@H](O[C@@H]6O[C@H](CO)[C@H](O)[C@H](O)[C@H]6O[C@@H]6O[C@H](CO)[C@@H](O)[C@H](O)[C@H]6O)CC[C@]5(C)[C@H]4CC[C@]3(C)[C@H]2[C@@H]1C` [Timosaponin B I (22), Timosaponin B I], in assay [1] (N2A-APPswe cells), the “Aβ42-lowering effect (in words)” value is “ineffective”. In assay [1] (setting [4]), the concentration for half-maximal inhibition (IC50) is greater than 100 µM.
As for `C[C@@H]1CC[C@@]2(OC1)O[C@H]1C[C@H]3[C@@H]4CC=C5C[C@@H](O)CC[C@]5(C)[C@H]4CC[C@]3(C)[C@H]1[C@@H]2C` [Diosgenin (6), diosgenin], the neurite outgrowth entry in the assay on Neuro-2A cells is recorded as “not shared”. Further, the “Aβ42-lowering effect (in words)” value in assay [1] (N2A-APPswe cells) is listed as “no effect”. In addition, the IC50 in assay [1] (setting [5]) is greater than 100 µM.

Values taken from article PMC6005341, “Identification of “sarsasapogenin-aglyconed” timosaponins as novel Aβ-lowering modulators of amyloid precursor protein processing” (Chemical Science, 2016).
